Experimental data taken from patent US5296604A, “Proline derivatives and compositions for their use as inhibitors of HIV protease” (priority 1992, dated 1994).
Where two headings read alike, the source gives them in different places.

Target: T1, HIV protease (Human immunodeficiency virus type 1 group M subtype B, UniProt P03366)
T1 construct: the predicted size of the protease is 99 amino acids
Assay: HIV protease inhibition, fluorometric RP-HPLC assay with N-dansyl-peptide substrate
Format: biochemical
Details: for inhibitory potency (in words): comparison by stereochemistry (2S,3S versus 2R,3R) and by hexan-1-olyl versus hexanoate group; for HIV Protease IC50 values of tested Examples (estimated): *Estimated IC50 from the observed inhibition at 10 μM concentration; for IC50 (estimated): estimated from the % inhibition at 10000 nM final; for activity relative to range necessary for therapeutic development: in words
Protocol: Following synthesis, the preferred embodiment compounds were tested for HIV protease inhibition. For in vitro potency testing, the N terminus of substrate amino acid sequences were first dansylated. The amino acid sequences present in such N-dansyl-peptide substrates can include, but are not limited to native proteolytic cleavage site sequences for the HIV gag and pol polyproteins.
The prepared substrates were incubated with HIV protease and compounds of the present invention, under conditions in which the protease is catalytically active. […] Following incubation, aliquots of the incubate were analyzed with reverse phase high performance liquid chromatography (hereinafter "RP-HPLC"). Any uncoverted peptide substrate is resolved from peptide product(s) and then detected by an inline fluorescence monitor. The amount of product formed over a known time interval may then be used to calculate the activity of the enzyme under the specific assay conditions. The amount of fluorescence detected in the eluted peak from HPLC can be related to the amount of peptide in the peak by prior HPLC analysis of standardized samples. The amount of peptide in the pure, standardized samples is determined accurately by amino acid analysis.
Inhibitory potency was assessed, in vitro, according to published procedures in Tamburini et al., 1990, "A Fluorometric Assay for HIV-Protease Activity Using High-Performance Liquid Chromatography", Analytical Biochemistry, 186:363.
HIV-protease was pre-incubated with or without the inhibitor compound at 37° C. and under buffer, ionic strength and pH conditions affording optimal protease activity. An N-dansyl-peptide substrate was then added to the incubation mixture. For example the dansylated substrate could be:
N-Dansyl-Ser-Gln-Asn-Tyr-Pro-Ile-Val (SEQ ID NO: 1)
The incubation mixture was then incubated at 37° C. During the incubation, the substrate is cleaved by the protease at the Tyr-Pro peptide bond to yield N-Dansyl-Ser-Gln-Asn-Tyr (SEQ ID NO: 2). At the end of the incubation (40 min) the reaction was terminated by acidification with TFA, and the amounts of unconverted substrate and fluorescent product were detected and quantified by subsequent RP-HPLC analysis with post column fluorescence detection.
The rate of cleavage of the substrate is quantified from the amount of product formed in the known incubation time. Specific assay conditions were as follows:
Incubations (75 ul) containing the complete system without substrate were preincubated at 37° C. for 15 min prior to initiation of the protease reaction by the addition of 25 ul of stock 400 uM substrtate peptide solution. The initial component concentrations at the start of the reaction were: HIV-protease (20 ul of a dilution sufficient to produce 40 to 60% substrate cleavage in 40 min), dimethyl sulphoxide (5%v/v), N-Dansyl-Ser-Gln-Asn-Tyr- […] (SEQ ID NO: 1) (100 uM), and sodium chloride (3 M) in 150 mM mes buffer pH 6.0. After a further incubation time of 40 min at 37° C. reactions were terminated by the addition of 50 ul of 12% (v/v) tri-flouroacetic acid, and then loaded into the HPLC autosampler for analysis.
Inhibitors were added to the incubation mixtures […] to protease addition before the preincubation, as stock solutions in dimethyl suphoxide, lower concentrations of inhibitor were obtained by serial dilution of the incubation mixture containing the highest inhibitor concentration. The range of inhibitor concentrations were designed to cover the range yielding zero to 100% inhibition of protease activity. Dilution of the HIV-protease activity (so as to achieve an amount of enzyme activity in 20 ul to produce 40 to 60% substrate conversion when added to the incubation) was achieved using the following buffer: 50 mM sodium acetate buffer pH 5.2, 50 mM sodium chloride, 20 mM DL-dithiothreitol, 20% (v/v) glycerol, 0.1% (v/v) triton X-100 and 1.5 M urea. […]

[1] = Table I, NI = no inhibition at 10 μM final concentration, 37 °C, 40 min, pH 6.0, read-out: HIV Protease IC50 values of tested Examples
[2] = Table II, titrated (Dixon plot, inhibitor up to 100-10000 nM), NI = no inhibition (tested at 10000 nM), read-out: IC50 (concentration in the assay incubation which inhibits the HIV protease activity by 50%)

Structure (SMILES) | IC50 [1] | IC50 [2] | inhibitory potency (in words) | other results
CC[C@H](C)[C@H](NC(=O)[C@@H]1CCCN1[C@H](C(=O)OC)[C@H](CC(C)C)NC(=O)OCc1ccccc1)C(=O)NCc1ccccc1 [Example 7, (2S, 3S) N-[methyl 2-(3-carbobenzyloxyamino-5-methyl-hexanoyl)]-Prolyl-Isoleucine N-Benzyl amide] | > 10 µM | > 10 µM | – | –
CC[C@H](C)[C@H](NC(=O)[C@@H]1CCCN1[C@@H](C(=O)OC)[C@@H](CC(C)C)NC(=O)OCc1ccccc1)C(=O)NCc1ccccc1 [Example 8] | > 10 µM | > 10 µM | – | –
CC[C@H](C)[C@H](NC(=O)[C@@H]1CCCN1[C@H](CO)[C@H](CC(C)C)NC(=O)OCc1ccccc1)C(=O)NCc1ccccc1 [Example 9, (2S, 3S) N-[2-(3-carbobenzyoxyamino-5-methylhexan-1-olyl)]-Prolyl-Isoleucine N-Benzyl amide] | 1.9 µM | – | significant inhibitor potency | –
CC[C@H](C)[C@H](NC(=O)[C@@H]1CCCN1[C@@H](CO)[C@@H](CC(C)C)NC(=O)OCc1ccccc1)C(=O)NCc1ccccc1 [Example 10] | > 10 µM | > 10 µM | innactive or poorly active | –
CC[C@H](C)[C@H](NC(=O)[C@@H]1CCCN1[C@H](C(=O)OC)[C@H](CC(C)C)NC(=O)[C@H](CC#N)NC(=O)OCc1ccccc1)C(=O)NCc1ccccc1 [Example 11a] | > 10 µM | > 10 µM | – | –
CC[C@H](C)[C@H](NC(=O)[C@@H]1CCCN1[C@H](C(=O)OC)[C@H](CC(C)C)NC(=O)[C@H](CC(N)=O)NC(=O)OCc1ccccc1)C(=O)NCc1ccccc1 [Example 11b] | – | – | – | HIV Protease IC50 values of tested Examples (estimated) (Table I): 15 µM; IC50 (estimated) (Table II): 15 µM
CC[C@H](C)[C@H](NC(=O)[C@@H]1CCCN1[C@H](CO)[C@H](CC(C)C)NC(=O)[C@H](CC(N)=O)NC(=O)OCc1ccccc1)C(=O)NCc1ccccc1 [Example 12, (2S, 3S) N-[2-(3-(N-carbobenzyloxy-asparaginyl)amino-5-methylhexan-1-olyl)]-Prolyl-Isoleucine N-Benzyl amide] | 0.125 µM | – | significant inhibitor potency | increase in inhibitory potency by additional Asn residue (Example 12 versus Example 9): 152 fold; activity relative to range necessary for therapeutic development: within the range necessary for therapeutic development
CC[C@H](C)[C@H](NC(=O)[C@@H]1CCCN1[C@H](C(=O)OC)[C@H](CC(C)C)NC(=O)[C@H](CC(N)=O)NC(=O)c1ccc2ccccc2n1)C(=O)NCc1ccccc1 [Example 14] | – | – | – | HIV Protease IC50 values of tested Examples (estimated) (Table I): > 50 µM; IC50 (estimated) (Table II): > 50 µM
CC[C@H](C)[C@H](NC(=O)[C@@H]1CCCN1[C@H](CO)[C@H](CC(C)C)NC(=O)[C@H](CC(N)=O)NC(=O)c1ccc2ccccc2n1)C(=O)NCc1ccccc1 [Example 15] | 0.035 µM | – | significant inhibitor potency | increase in inhibitory potency by N-quinaldehyde in place of N-carbo-benzyloxy (Example 15 versus Example 12): 3.6 fold; activity relative to range necessary for therapeutic development: within the range necessary for therapeutic development
CC[C@H](C)[C@H](NC(=O)[C@@H]1CCCN1[C@@H](C(=O)OC)[C@@H](CC(C)C)NC(=O)[C@H](CC(N)=O)NC(=O)c1ccc2ccccc2n1)C(=O)NCc1ccccc1 [Example 16, (2R, 3R) N-[2 (3-(N-guinaldyl-asparaginyl)amino-5-methyl-hexanoate)]-Prolyl-Isoleucine N-Benzyl amide] | > 10 µM | > 10 µM | – | –
CC[C@H](C)[C@H](NC(=O)[C@@H]1CCCN1[C@@H](CO)[C@@H](CC(C)C)NC(=O)[C@H](CC(N)=O)NC(=O)c1ccc2ccccc2n1)C(=O)NCc1ccccc1 [Example 17, (2R, 3R) N-[2-(3-(N-guinaldyl-asparaginyl)amino-5-methylhexan-1-olyl)]-Prolyl-Isoleucine N-Benzyl amide] | – | – | innactive or poorly active | HIV Protease IC50 values of tested Examples (estimated) (Table I): 15 µM; IC50 (estimated) (Table II): 15 µM
